Consider 28 compounds from patent US12060347B2 (BRISTOL-MYERS SQUIBB COMPANY, priority 2016, dated 2024).

For this test, the target named is T1, human PAR4 (Homo sapiens, UniProt Q96RI0).
T1 construct: expressed in transfected cells; host or cells: HEK293 PAR4 Clone 1.2A (BMS Arctic ID 383940)
T1 sequence (Q96RI0 18-385): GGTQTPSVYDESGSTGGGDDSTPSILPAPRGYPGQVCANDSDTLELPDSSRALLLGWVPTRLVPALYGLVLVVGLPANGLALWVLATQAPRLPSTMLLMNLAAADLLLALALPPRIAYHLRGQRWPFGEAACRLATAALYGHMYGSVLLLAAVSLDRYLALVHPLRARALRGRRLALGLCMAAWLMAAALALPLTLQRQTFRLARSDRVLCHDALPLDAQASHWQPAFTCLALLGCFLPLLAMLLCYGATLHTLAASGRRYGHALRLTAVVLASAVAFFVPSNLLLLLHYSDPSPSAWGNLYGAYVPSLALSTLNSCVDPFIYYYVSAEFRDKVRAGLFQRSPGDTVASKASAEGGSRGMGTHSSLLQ
Nature of the test: PAR4 FLIPR assay: antagonism of agonist-peptide-induced calcium mobilization in PAR4-expressing HEK293 cells. The conditions noted are these: H-Ala-Phe(4-F)-[…]NH2-induced intracellular calcium mobilization, 11-point curves. The format is cell-based. In general terms: Calcium flux is commonly read through the fluorescence of an indicator in the cells.

`COCc1cnc2c(-c3nc4c(C(O)C(C)(C)C)c(C)c(OC)cc4s3)cc(C)cc2n1` (racemic) [Example 328, 1-(6-methoxy-2-(2-(methoxymethyl)-7-methylquinoxalin-5-yl)-5-methylbenzo[d]thiazol-4-yl)-2,2-dimethylpropan-1-ol]: the IC50 (usually the concentration needed to halve the response being measured) was determined as 1.4 nM. On to `COC(=O)c1ccc(NC(=O)O[C@H](C)[C@H](C)Oc2cc3sc(-c4cc(Cl)cc5nc(OC)cnc45)nc3cc2F)cn1` [Example 830, methyl 5-(((((2R,3S)-3-((2-(7-chloro-2-methoxyquinoxalin-5-yl)-5-fluorobenzo[d]thiazol-6-yl)oxy)butan-2-yl)oxy)carbonyl)amino)picolinate], for which the IC50 came out at 1.6 nM.

As to `COc1cnc2c(-c3nc4cc(F)c(O[C@@H](C)[C@@H](C)OC(=O)Nc5ccc(OCCO)nc5)nc4s3)cc(C)cc2n1` [Example 725, (2R,3S)-3-((6-fluoro-2-(2-methoxy-7-methylquinoxalin-5-yl)thiazolo[5,4-b]pyridin-5-yl)oxy)butan-2-yl (6-(2-hydroxyethoxy)pyridin-3-yl)carbamate], the IC50 was 0.8 nM.

As to `COc1cnc2c(-c3nc4cc(F)c(O[C@@H](C)[C@@H](C)OC(=O)Nc5ccnc(OCCC(C)(C)O)c5)nc4s3)cc(C)cc2n1` [Example 727, (2R,3S)-3-((6-fluoro-2-(2-methoxy-7-methylquinoxalin-5-yl)thiazolo[5,4-b]pyridin-5-yl)oxy)butan-2-yl (2-(3-hydroxy-3-methylbutoxy)pyridin-4-yl)carbamate], the IC50 stood at 1.7 nM.

Consider `COc1cc(NC(=O)O[C@H](C)[C@H](C)Oc2cc3sc(-c4cc(C)cc5nc(OC)cnc45)nc3cc2F)ccn1` [Example 412, (2R,3S)-3-((5-fluoro-2-(2-methoxy-7-methylquinoxalin-5-yl)benzo[d]thiazol-6-yl)oxy)butan-2-yl (2-methoxypyridin-4-yl)carbamate], for which the IC50 is 0.3 nM. On to `COCc1cnc2c(-c3nc4c(Cl)cccc4s3)cc(C)cc2n1` [Example 260, 4-chloro-2-(2-(methoxymethyl)-7-methylquinoxalin-5-yl)benzo[d]thiazole], for which the IC50 is 4.8 nM. Then `COc1cnc2c(-c3nc4cc(F)c(O[C@@H](C)[C@@H](C)OC(=O)Nc5ccc(C(=O)N(C)C)nc5)cc4s3)cc(C)cc2n1` [Example 438, (2R,3S)-3-((5-fluoro-2-(2-methoxy-7-methylquinoxalin-5-yl)benzo[d]thiazol-6-yl)oxy)butan-2-yl (6-(dimethylcarbamoyl)pyridin-3-yl)carbamate], with 1.9 nM. Take `COc1cnc2c(-c3nc4c(C)cc(OCCNS(=O)(=O)c5ccc(F)cc5)cc4s3)cc(CCO)cc2n1` [Example 237, 4-fluoro-N-(2-((2-(7-(2-hydroxyethyl)-2-methoxyquinoxalin-5-yl)-4-methylbenzo[d]thiazol-6-yl)oxy)ethyl)benzenesulfonamide]: the IC50 was found to be 170 nM. In the case of `COCc1cnc2c(-c3nc4c(OC)cccc4s3)cc(C)cc2n1` [Example 259, 4-methoxy-2-(2-(methoxymethyl)-7-methylquinoxalin-5-yl)benzo[d]thiazole], the IC50 was 14 nM.

Regarding `COc1cnc2c(-c3nc4cc(F)c(OC[C@@H](C)OC(=O)Nc5ccc(C(=O)NC[C@H](C)O)nc5)nc4s3)cc(C)cc2n1` [Example 748, (R)-1-((6-fluoro-2-(2-methoxy-7-methylquinoxalin-5-yl)thiazolo[5,4-b]pyridin-5-yl)oxy) propan-2-yl (6-(((S)-2-hydroxypropyl)carbamoyl)pyridin-3-yl)carbamate], the IC50 was determined as 2.9 nM. For the compound `COc1cnc2c(-c3nc4c(Cl)c(F)c(OCCOC(N)=O)cc4s3)cc(C)cc2n1` [Example 358, 2-((4-chloro-5-fluoro-2-(2-methoxy-7-methylquinoxalin-5-yl)benzo[d]thiazol-6-yl)oxy) ethyl carbamate], the IC50 was 270 nM. Then `COc1cnc2c(-c3nc4cc(F)c(O[C@@H](C)[C@@H](C)OC(=O)Nc5cnc(C(=O)NCC(C)(C)O)nc5)nc4s3)cc(C)cc2n1` [Example 751, (2R,3S)-3-((6-fluoro-2-(2-methoxy-7-methylquinoxalin-5-yl)thiazolo[5,4-b]pyridin-5-yl)oxy)butan-2-yl (2-((2-hydroxy-2-methylpropyl)carbamoyl)pyrimidin-5-yl)carbamate], with 4.7 nM; and `COc1cnc2c(-c3nc4cc(F)c(OC[C@@H](C)OC(=O)Nc5ccc6[nH]c(=O)oc6c5)nc4s3)cc(C)cc2n1` [Example 683, (R)-1-((6-fluoro-2-(2-methoxy-7-methylquinoxalin-5-yl)thiazolo[5,4-b]pyridin-5-yl)oxy) propan-2-yl (2-oxo-2,3-dihydrobenzo[d]oxazol-6-yl)carbamate], with 0.7 nM; and `COc1cnc2c(-c3nc4cc(F)c(O[C@@H](C)[C@@H](C)OC(=O)Nc5cnc(OCCO)nc5)cc4s3)cc(C)cc2n1` [Example 556, (2R,3S)-3-((5-fluoro-2-(2-methoxy-7-methylquinoxalin-5-yl)benzo[d]thiazol-6-yl)oxy)butan-2-yl (2-(2-hydroxyethoxy)pyrimidin-5-yl)carbamate], with 0.7 nM. Then `COc1cnc2c(-c3nc4cc(F)c(OC[C@@H](C)OC(=O)Nc5ccc(C(=O)NCCO)nc5)cc4s3)cc(C)cc2n1` [Example 445, (R)-1-((5-fluoro-2-(2-methoxy-7-methylquinoxalin-5-yl)benzo[d]thiazol-6-yl)oxy)propan-2-yl (6-((2-hydroxyethyl)carbamoyl)pyridin-3-yl)carbamate], with 3.2 nM; and `COc1cnc2c(-c3nc4cc(F)c(OC[C@@H](C)OC(=O)Nc5ccc(CCO)nc5)nc4s3)cc(C)cc2n1` [Example 691, (R)-1-((6-fluoro-2-(2-methoxy-7-methylquinoxalin-5-yl)thiazolo[5,4-b]pyridin-5-yl)oxy) propan-2-yl (6-(2-hydroxyethyl)pyridin-3-yl)carbamate], with 0.9 nM; and `COc1cnc2c(-c3nc4cc(F)c(O[C@@H](C)[C@@H](C)OC(=O)Nc5cnc(C(N)=O)nc5)nc4s3)cc(C)cc2n1` [Example 755, (2R,3S)-3-((6-fluoro-2-(2-methoxy-7-methylquinoxalin-5-yl)thiazolo[5,4-b]pyridin-5-yl)oxy)butan-2-yl (2-carbamoylpyrimidin-5-yl)carbamate], with 0.3 nM.

As for `COCc1cnc2c(-c3nc4cc(OC)c(OC)cc4s3)cc(C)cc2n1` [Example 311, 5,6-dimethoxy-2-(2-(methoxymethyl)-7-methylquinoxalin-5-yl)benzo[d]thiazole], the IC50 stood at 93 nM. On to `COc1cnc2c(-c3nc4cc(F)c(OC[C@@H](C)OC(=O)Nc5ccc(C(=O)NCC6(CO)COC6)nc5)cc4s3)cc(C)cc2n1` [Example 470, (R)-1-((5-fluoro-2-(2-methoxy-7-methylquinoxalin-5-yl)benzo[d]thiazol-6-yl)oxy)propan-2-yl (6-(((3-(hydroxymethyl)oxetan-3-yl)methyl)carbamoyl)pyridin-3-yl)carbamate], for which the 50% inhibitory concentration (IC50) worked out at 2.2 nM.

For the compound `COC(=O)Nc1cccc2nc(-c3cc(C)cc4nc(OC(F)F)cnc34)sc12` [Example 80, Methyl 2-(2-(difluoromethoxy)-7-methylquinoxalin-5-yl)benzo[d]thiazol-7-ylcarbamate], the IC50 stood at 21 nM. Consider `[2H]C([2H])(O)c1c(C)c(OC)cc2sc(-c3cc(C)cc4nc(COC)cnc34)nc12` [Example 325], for which the IC50 came out at 0.7 nM.

For `CCOC(=O)C1(C(O)c2cc(OC)cc3sc(-c4cc(C)cc5nc(OC)cnc45)nc23)CCC1` (stereo not shown) [Example 644, Ethyl 1-(hydroxy(6-methoxy-2-(2-methoxy-7-methylquinoxalin-5-yl)benzo[d]thiazol-4-yl)methyl)cyclobutanecarboxylate], the IC50 is 21 nM. As for `CCOc1cnc2c(-c3nc4c(C(O)C(C)(C)C)cc(OC)cc4s3)cc(C)cc2n1` (stereo not shown) [Example 817, 1-(2-(2-ethoxy-7-methylquinoxalin-5-yl)-6-methoxybenzo[d]thiazol-4-yl)-2,2-dimethylpropan-1-ol], the IC50 worked out at 3.6 nM.

With `COc1cnc2c(-c3nc4cc(F)c(O[C@@H](C)[C@@H](C)OC(=O)Nc5ccncc5)nc4s3)cc(C)cc2n1` [Example 713, (2R,3S)-3-((6-fluoro-2-(2-methoxy-7-methylquinoxalin-5-yl)thiazolo[5,4-b]pyridin-5-yl)oxy)butan-2-yl pyridin-4-ylcarbamate], the IC50 turned out to be 1.8 nM. Consider `COCc1cnc2c(-c3nc4c(C(C)O)c(C)c(OC)cc4s3)cc(C)cc2n1` (stereo not shown) [Example 326, 1-(6-methoxy-2-(2-(methoxymethyl)-7-methylquinoxalin-5-yl)-5-methylbenzo[d]thiazol-4-yl)ethanol], for which the IC50 is 1.1 nM.

In the case of `COc1ccc(NC(=O)OCCOc2cc3sc(-c4cc(C)cc5nc(OC)cnc45)nc3cc2F)cn1` [Example 341, 2-((5-fluoro-2-(2-methoxy-7-methylquinoxalin-5-yl)benzo[d]thiazol-6-yl)oxy) ethyl (6-methoxypyridin-3-yl)carbamate], the IC50 stood at 15 nM. As to `COCc1cnc2c(-c3nc4cnccc4s3)cc(C)cc2n1` [Example 146, 2-(2-(methoxymethyl)-7-methylquinoxalin-5-yl)thiazolo[4,5-c]pyridine], the IC50 came to 7 nM. For the compound `CCOc1cnc2c(-c3nc4cc(F)c(OC[C@@H](C)OC(=O)Nc5cnc(OCCO)nc5)nc4s3)cc(C)cc2n1` [Example 814, (R)-1-((2-(2-ethoxy-7-methylquinoxalin-5-yl)-6-fluorothiazolo[5,4-b]pyridin-5-yl)oxy)propan-2-yl (2-(2-hydroxyethoxy)pyrimidin-5-yl)carbamate], the IC50 came out at 7.2 nM.
